The results in this text go back to ChEMBL document CHEMBL1148912, “New diterpenoids from the marine mangrove Bruguiera gymnorrhiza” (J Nat Prod, 2004).

Data set [1] is described as follows: Growth inhibition of mouse L929 cells. It counts as cell-based.
A further data set deals with K562. Kind of data set: Growth inhibition of human K562 cells. It counts as functional.
In another data set the test system is HeLa. Kind of data set: Cytotoxicity against human HeLa cells. It counts as functional.

Converted amounts (≈) assume the structure as drawn.

In the case of `C[C@@]12CCC[C@@](C)(C=O)[C@H]1CC[C@]13C[C@](O)(CC[C@H]12)[C@](O)(CCl)C3`, the GI50 in data set [1] stood at 50 µg/mL (≈ 141 µM); in the data set on K562, 29.2 µg/mL (≈ 82.3 µM). Moreover, the half-maximal cytotoxic concentration (CC50) in the data set with HeLa came to 38.2 µg/mL (≈ 108 µM).
On the same counts, the results for `C[C@@]12CCC[C@@](C)(C(=O)O)[C@H]1CC[C@@]13C[C@H](CO)[C@@H](CC[C@H]12)C3` are 42.4 µg/mL (≈ 132 µM), 32.8 µg/mL (≈ 102 µM) and 43 µg/mL (≈ 134 µM).
The corresponding values for `C[C@@]1(CO)CCC[C@]2(C)[C@@H]1CC[C@@]13C[C@H](CO)[C@@H](CC[C@H]12)C3` are 12.8 µg/mL (≈ 41.8 µM), 13.6 µg/mL (≈ 44.4 µM) and 35.7 µg/mL (≈ 116 µM).
Regarding `COC(=O)[C@]1(C)CCC[C@@]2(C)[C@@H]3CC[C@H]4C[C@]3(CC[C@@H]21)C[C@]4(O)CO`, the values for the GI50 (in data set [1]; in the data set on K562) were 39.5 µg/mL (≈ 113 µM) and 27.7 µg/mL (≈ 79 µM), respectively. Moreover, the 50% cytotoxic concentration (CC50) in the data set with HeLa came out at 40.5 µg/mL (≈ 116 µM).
The corresponding values for `COC(=O)[C@]1(C)CCC[C@@]2(C)C3=CC[C@H]4C[C@]3(CC[C@H]12)C[C@]4(O)CO` are 41.9 µg/mL (≈ 120 µM), 26.7 µg/mL (≈ 76.6 µM) and 38.7 µg/mL (≈ 111 µM).
With `C[C@@]12CCC[C@@](C)(C=O)[C@H]1CC[C@@]13CC(=O)[C@](CO)(CC[C@H]12)C3`, the values for the concentration for 50% growth inhibition (GI50) (in data set [1]; with K562) were 45.4 µg/mL (≈ 143 µM) and 50 µg/mL (≈ 157 µM), respectively. The compound further came in with a cytotoxic concentration (CC50) in the data set with HeLa of 37.7 µg/mL (≈ 118 µM).
On to `C=C1C[C@]23CC[C@@H]4[C@](C)(CO)CCC[C@@]4(C)[C@@H]2CC[C@@]1(O)C3`, for which the concentration for 50% growth inhibition (GI50) (in data set [1]; in the data set with K562) was 50 µg/mL (≈ 164 µM) in each case. In the data set with HeLa, the midpoint of cytotoxicity, the CC50, lay at 50 µg/mL (≈ 164 µM).
Regarding `C[C@@]12CCC[C@@](C)(C=O)[C@H]1CC[C@@]13C[C@@H](CC[C@H]12)[C@@](O)(CO)C3`, the GI50 (in data set [1]; in the data set on K562) was 50 µg/mL (≈ 156 µM) each time. The compound also came in with a half-maximal cytotoxic concentration (CC50) in the data set with HeLa of 50 µg/mL (≈ 156 µM).
In the case of `C=C1C[C@@]23CC[C@@H]4[C@](C)(CO)CCC[C@@]4(C)[C@@H]2CC[C@H]1C3`, the GI50 in data set [1] is 18.2 µg/mL (≈ 63.1 µM); with K562, 6.8 µg/mL (≈ 23.6 µM). In addition, the midpoint of cytotoxicity with HeLa, the CC50, lay at 32.8 µg/mL (≈ 114 µM).
On the same counts, the results for `C=C1C[C@]23CC[C@H]4[C@@](C)(CCC[C@@]4(C)C=O)[C@@H]2CC[C@@]1(O)C3` are 11.5 µg/mL (≈ 38 µM), 10.5 µg/mL (≈ 34.7 µM) and 42.3 µg/mL (≈ 140 µM).
On the same counts, the results for `CC(=O)O[C@H]1C(=O)[C@@]2(C)[C@H]([C@H](OC(=O)c3ccccc3)[C@]3(O)C[C@H](OC(=O)[C@H](O)[C@@H](NC(=O)c4ccccc4)c4ccccc4)C(C)=C1C3(C)C)[C@]1(OC(C)=O)CO[C@@H]1C[C@@H]2O` [PACLITAXEL] are 0.1 µg/mL (≈ 0.117 µM), 0.01 µg/mL (≈ 0.0117 µM) and 0.01 µg/mL (≈ 0.0117 µM).

As usually defined, the GI50 is the concentration giving 50% growth inhibition. One may read the CC50 as the concentration that lowers cell viability or growth by half. Lower therefore signals harm at low concentration.
